Data as given in patent US20230234936A1, “COMPOUND FOR TARGETING AND DEGRADING PROTEIN, AND PREPARATION METHOD THEREFOR AND USE THEREOF” (SHANGHAI LEADINGTAC PHARMACEUTICAL CO., LTD., priority 2020, published 2023).

Legend:
[1] = molecular target: T1, IRAK4 kinase (Homo sapiens, UniProt Q9NWZ3); assay: IRAK4 kinase activity test (KinEASE-STK S1 HTRF kit); format: biochemical; conditions: 2.5 nM kinase, 1 μM biotinylated polypeptide substrate, 7 μM ATP, 37° C. 120 min
T1 sequence (Q9NWZ3 1-460): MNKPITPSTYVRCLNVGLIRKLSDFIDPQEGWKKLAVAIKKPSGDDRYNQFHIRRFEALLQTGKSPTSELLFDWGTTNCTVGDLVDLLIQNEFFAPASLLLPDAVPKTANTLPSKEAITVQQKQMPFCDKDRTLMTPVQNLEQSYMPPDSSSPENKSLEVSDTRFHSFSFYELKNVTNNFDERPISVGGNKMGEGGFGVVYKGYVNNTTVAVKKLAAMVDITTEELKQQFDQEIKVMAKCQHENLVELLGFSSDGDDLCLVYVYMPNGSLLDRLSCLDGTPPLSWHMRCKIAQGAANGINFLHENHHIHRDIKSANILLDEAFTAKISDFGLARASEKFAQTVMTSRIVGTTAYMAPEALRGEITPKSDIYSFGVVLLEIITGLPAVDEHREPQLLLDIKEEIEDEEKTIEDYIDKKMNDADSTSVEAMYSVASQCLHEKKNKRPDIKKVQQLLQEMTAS
Method: KinEASE-STK S1 serine/threonine kinase kit (Cisbio) was used to detect the inhibitory effect of the compound on IRAK4 kinase activity. The specific method was: the compound was dissolved in dimethyl sulfoxide, and then it was diluted with the buffer solution of the kit by equal gradient to make the final concentration range of the tested compound in the reaction system 10000 nM-0.038 nM, then 2.5 nM kinase, 1 μM biotinylated polypeptide substrate and 7 μM adenosine triphosphate (ATP) were added in sequence and incubated at 37° C. for 120 min. Subsequently, anti-phosphorylated serine/threonine antibody coupled with europium element compound and modified XL665 streptavidin were added to the reaction system to terminate the reaction. After incubating at room temperature for 1 h, the fluorescence intensity of each well at the emission wavelength of 620 nm and 665 nm and the excitation wavelength of 337 nm was determined in HTRF mode on the microplate reader EnVision(PerkinElmer), the ratio value was calculated using the formula Ratio=(665 nm/620 nm)×10^4. By comparing with the fluorescence intensity ratio of the control group, the inhibition rate of the compound at each concentration was calculated, and then the IC50 value of the compound was obtained by fitting the nonlinear curve with the logarithmic concentration-inhibition rate by GraphPad Prism 7.

[2] = molecular target: T2, IRAK4 protein in THP-1 cells (Homo sapiens, UniProt Q9NWZ3); assay: Degradation of IRAK4 in THP-1 cells (Western blot); format: cell-based; conditions: 24 hours, compound 1-3000 nM
T2 construct: endogenous in cells; host or cells: THP-1
T2 sequence (Q9NWZ3 1-460): T1 sequence (Q9NWZ3 1-460)
Method: Each well of the 24-well cell culture plate was inoculated with 0.95 mL THP-1 cells (stem cell bank of Chinese academy of sciences) with a cell density of 5×10^5 cells/well. The cell plate was placed in a 5% carbon dioxide incubator and cultured overnight at 37° C., then 50 μL compound in dimethyl sulfoxide was added. The final concentration of the compound was in the range of 1-3000 nM. After continuous cultivation for 24 hours, the cells were collected into a 1.5 mL centrifuge tube, centrifuged at 1000 rpm and 4° C. for 5 minutes. Cell precipitation was cleaned twice with 1-DPBS, resuspended cells were lysed with 200 μL lysate (cell lysate was Western and IP cell lysate (Beyotime), supplemented with 1 mM mixture of phenylmethylsulfonyl fluoride and protease inhibitor (Beyotime)), left on ice for 30 minutes, then centrifuged at 14000 g at 4° C. for 10 minutes, and the supernatant was taken to detect IRAK4 protein level by Western blot.
Western blot method: The total protein concentration in the supernatant of cell lysis was determined by BCA protein quantitative kit (Tiangen). According to the concentration of total protein detected by BCA, the supernatant was adjusted to 0.2 μg/μL with PBS and 5× SDS-PAGE protein loading buffer (Beyotime), bathed in water at 100° C. for 10 minutes, then placed in ice bath for 5 minutes, centrifuged at 14000 g and 4° C. for 5 minutes, and then collected as WB loading sample. Prefabricated glue (KeyGEN) was used for protein electrophoresis with a loading amount of 10 μL (total protein 2 μg). After Tris-MOPS-SDS electrophoresis solution (Adamas), 120V constant pressure electrophoresis was performed. After electrophoresis, the protein on the adhesive strip was transferred to PVDF membrane with a constant current of […] for 50 minutes. After the membrane was transferred, the membrane was placed in 1×QuickBlock blocking buffer (Beyotime) and incubated for 30 minutes at room temperature. After blocking, PVDF membranes were incubated with IRAK4 primary antibody (Abcam) overnight at 4°, the membranes were washed with TBST buffer (2.4 g Tris, 8.8 g NaCl, 1.5 mL Tween 20, pH adjusted to 7.4, constant volume to 1 L) for 30 minutes, incubated with secondary antibody (Abcam) for 2 hours at room temperature, finally incubated with Clarity Western ECL Substrate(BIO-RAD) for 5 minutes for luminescence development, chemiluminescence imaging system (Clinx, chemiScope 6200 Touch) for development and protein mapping photography. The protein map was analyzed by Clinx chemiluminescence analysis software for grayscale values. Using the formula: grayscale correction value=(target protein grayscale value/corresponding internal reference grayscale value)×10^3, the grayscale correction value of each sample was calculated. The degradation rate was calculated by comparing with the grayscale correction value of the control group. Furthermore, DC50 and Dmax values of the compound were obtained by the nonlinear curve fitting with the logarithmic concentration-inhibition rate by GraphPad Prism 7.

SMILES | IC50 [1] [nM] | DC50 [2] [nM] | Dmax [2] [%]
CCN(C1CCC2(CC1)CCN(C(=O)c1ccc(Cl)c(N3CCC(=O)NC3=O)c1)CC2)[C@H]1CC[C@H](n2cc3cc(NC(=O)c4cccc(C(F)(F)F)n4)c(OC)cc3n2)CC1 [Example 60] | 6.43 | 5.1 | 93.2
CC(C)(O)c1cc2nn(C3CCN(CCN4CCC5(CC4)CCN(C(=O)c4ccc(Cl)c(N6CCC(=O)NC6=O)c4)CC5)CC3)cc2cc1NC(=O)c1cccc(C(F)(F)F)n1 [Example 17, N-(2-(1-(2-(9-(4-chloro-3-(2,4-dioxotetrahydro-pyrimidin-1 (2H)-yl)benzoyl)-3,9-diazaspiro[5.5]undec-3-yl)ethyl)piperidin-4-yl)-6-(2-hydroxyprop-2-yl)-2H-indazol-5-yl)-6-(trifluoro-methyl) pyridinecarbox-amide] | 7.9 | 5.3 | 96.9
COc1cc2nn(C3CCN(CCOCCOc4ccc5c(c4)C(=O)N(C4CCC(=O)NC4=O)C5=O)CC3)cc2cc1NC(=O)c1cccc(C(F)(F)F)n1 (centres unmarked) [Control group 1, N-(2-(1-(2-(2-((2-(2,6-dioxopiperidin-3-yl)-1,3-dioxoisoindol-5-yl)oxy)ethoxy)ethyl)piperidin-4-yl)-6-methoxy-2H-indazol-5-yl)-6-(trifluoromethyl) pyridinecarboxamide, reference compound] | 44.2 | 38.1 | 
COc1cc2nn(C3CCN(CCCCN4CCC5(CC4)CCN(C(=O)c4ccc(OC)c(N6CCC(=O)NC6=O)c4)CC5)CC3)cc2cc1NC(=O)c1cccc(C(F)(F)F)n1 [Example 3] | 2.7 | 23.1 | 90.5
CCOc1ccc(C(=O)N2CCC3(CC2)CC(CCN2CCC(n4cc5cc(NC(=O)c6cccc(C(F)(F)F)n6)c(C(C)(C)O)cc5n4)CC2)C3)cc1N1CCC(=O)NC1=O [Example 25] | 13.7 | 0.82 | 98
COc1cc2nn([C@H]3CC[C@H](CN(C)CCCCC4CCN(C(=O)c5ccc(Cl)c(N6CCC(=O)NC6=O)c5)CC4)CC3)cc2cc1NC(=O)c1cccc(C(F)(F)F)n1 [Example 67, N-(2-((1r,4r)-4-(((4-(1-(4-chloro-3-(2,4-dioxotetrahydro-pyrimidin-1 (2H)-yl)benzoyl)piperidin-4-yl)butyl) (methyl)amino)methyl)cyclohexyl)-6-methoxy-2H-indazol-5-yl)-6-(trifluoro-methyl) pyridinecarbox-amide] | 5.13 | 11.5 | 99.2
COc1cc2nn(C3CCN(CCCCCN(C)C(=O)c4ccc(OC)c(N5CCC(=O)NC5=O)c4)CC3)cc2cc1NC(=O)c1cccc(C(F)(F)F)n1 [Example 9, N-(2-(1-(5-(3-(2,4-dioxotetrahydropyrimidin-1 (2H)-yl)-4-methoxy-N-methylbenzamido)pentyl)piperidin-4-yl)-6-methoxy-2H-indazol-5-yl)-6-(trifluoromethyl) pyridinecarboxamide] | 18 | 16.4 | 94.3
COc1cc2nn(C3CCN(CCC4CCC5(CC4)CCN(C(=O)c4ccc(F)c(N6CCC(=O)NC6=O)c4)CC5)CC3)cc2cc1NC(=O)c1cccc(C(F)(F)F)n1 [Example 46, N-(2-(1-(2-(3-(3-(2,4-dioxotetrahydro-pyrimidin-1 (2H)-yl)-4-fluoro-benzoyl)-3-azaspiro[5.5]undec-9-yl)ethyl)piperidin-4-yl)-6-methoxy-2H-indazol-5-yl)-6-(tri-fluoromethyl) pyridinecarbox-amide] | 43.1 | 4 | 97.8
COc1cc2nn(C3CCN(CC4CCC5(CC4)CCN(C(=O)c4ccc(F)c(C6CCC(=O)NC6=O)c4)CC5)CC3)cc2cc1NC(=O)c1cccc(C(F)(F)F)n1 (centres unmarked) [Example 42, N-(2-(1-((3-(3-(2,6-dioxopiperidin-3-yl)-4-fluoro-benzoyl)-3-azaspiro [5.5]undec-9-yl)methyl)piperidin-4-yl)-6-methoxy-2H-indazol-5-yl)-6-(trifluoromethyl) pyridinecarbox-amide] | 39.2 | 7.8 | 100
COc1cc2nn([C@H]3CC[C@H](CN(C)C4CCN(C5CCN(C(=O)c6ccc(Cl)c(N7CCC(=O)NC7=O)c6)CC5)CC4)CC3)cc2cc1NC(=O)c1cccc(C(F)(F)F)n1 [Example 65, N-(2-((1r,4r)-4-(((1′-(4-chloro-3-(2,4-dioxotetrahydro-pyrimidin-1 (2H)-yl)benzoyl)-[1,4′-bi-piperidin]-4-yl) (methyl)amino)methyl)cyclohexyl)-6-methoxy-2H-indazol-5-yl)-6-(trifluoro-methyl) pyridinecarbox-amide] | 1.6 | 13.4 | 98.3
COc1ccc(C(=O)N2CCC3(CC2)CC(CCN2CCC(n4cc5cc(NC(=O)c6cccc(C(F)(F)F)n6)c(C(C)(C)O)cc5n4)CC2)C3)cc1N1CCC(=O)NC1=O [Example 26] | 6.5 | 1 | 86.9
COc1cc2nn(C3CCN(CC4CC5(CCN(C(=O)c6ccc(Cl)c(N7CCC(=O)NC7=O)c6)CC5)C4)CC3)cc2cc1NC(=O)c1cccc(C(F)(F)F)n1 [Example 39, N-(2-(1-((7-(4-chloro-3-(2,4-dioxotetrahydro-pyrimidin-1 (2H)-yl)benzoyl)-7-azospiro [3.5]non-2-yl)methyl)piperidin-4-yl)-6-methoxy-2H-indazol-5-yl)-6-(trifluoromethyl) pyridinecarbox-amide] | 16.7 | 10.5 | 89.4
COc1ccc(C(=O)N2CCC3(CCN(CCCN4CCC(n5cc6cc(NC(=O)c7cccc(C(F)(F)F)n7)c(C(C)(C)O)cc6n5)CC4)CC3)CC2)cc1N1CCC(=O)NC1=O [Example 11] | 6 | 27.7 | 99.6
COc1ccc(C(=O)N2CCC(CCCN3CCC(n4cc5cc(NC(=O)c6cccc(C(F)(F)F)n6)c(C(C)(C)O)cc5n4)CC3)CC2)cc1N1CCC(=O)NC1=O [Example 22, N-(2-(1-(3-(1-(3-(2,4-dioxotetrahydro-pyrimidin-1 (2H)-yl)-4-me-thoxybenzoyl)piperidin-4-yl)propyl)piperidin-4-yl)-6-(2-hydroxyprop-2-yl)-2H-inda-zol-5-yl)-6-(trifluoromethyl) pyridinecarbox-amide] | 11.7 | 16.4 | 94.3
